This is an account of results in publication PMC7946689, “Galactose-Modified PH-Sensitive Niosomes for Controlled Release and Hepatocellular Carcinoma Target Delivery of Tanshinone IIA” (AAPS PharmSciTech, 2021).

For one data set, the system named is A2780 cells. The data set can be described thus: CCK8 cell viability assay. The data set is classed as cell-based. To be noted: Homo sapiens, 24 h, equivalent tanshinone IIA dose. The procedure:
(§1) A2780, HCT8, HepG2, and Huh7 cells were seeded in 96-well plates at a density of 4 × 10^4 cells per well for 24 h ([32]) and treated with complete medium containing a series of blank niosomes (NSVs, Gal-NSVs, pH-NSVs, Gal-pH-NSVs) for 24 h. Subsequently, the culture medium was discarded, and CCK8 solution was added to the cells. Then, cells were continuously cultured for 2 h at 37°C. The absorbance value of each well was measured at 450 nm by a microplate spectrophotometer (BIO-RAD xMark, USA). The control group and blank group were included in the experiment. […] Cell viability was calculated according to the following formula ([33]): Cell viability%=Atest−Ao/Acontrast−Ao×100%
(§2) In the formula, Atest is the absorbance value of the test group, Acontrast is the absorbance value of the control group, and A0 is the absorbance value of the blank group.
(§3) A2780, HCT8, HepG2, and Huh7 cells were seeded in 96-well plates for 24 h and treated with serial concentrations of tanshinone IIA solution (Free TanIIA) and tanshinone IIA-loaded niosomes (TanIIA-NSVs, Gal-TanIIA-NSVs, pH-TanIIA-NSVs, Gal-pH-TanIIA-NSVs) at an equivalent tanshinone IIA dose for 24 h. Then, the culture medium was discarded, CCK8 solution was added to the cells, and cells were continuously cultured for 2 h at 37°C. The absorbance value of each well was measured at 450 nm by a microplate spectrophotometer ([33]).
In general terms: Formazan colour is commonly taken as a measure of viable cells.

A further data set relates to HCT8 cells. The experiment in a line: CCK8 cell viability assay. Format: cell-based. To be noted: Homo sapiens, HCT-8, 24 h, equivalent tanshinone IIA dose. Here is the method: as §1, §2, §3
Data set [1] has as its system HepG2 cells. The experiment in a line: CCK8 cell viability assay. The data set is classed as cell-based. To be noted: Homo sapiens, 24 h, equivalent tanshinone IIA dose. The procedure: as §1, §2, §3
Another data set deals with Huh7 cells. The data set can be described thus: CCK8 cell viability assay. Format: cell-based. To be noted: Homo sapiens, Huh-7, 24 h, equivalent tanshinone IIA dose. Here is the method: as §1, §2, §3
The subject of data set [2] is HepG2 cells. The data set can be described thus: Cell apoptosis by flow cytometry (Annexin V-FITC/PI). The data set is classed as cell-based. To be noted: 5 μg/mL tanshinone IIA equivalent, 24 h, control 57.33%. Here is the method:
HepG2 cells were seeded in 6-well plates at a density of 2 × 10^5 cells per well for 24 h and treated with tanshinone IIA solution (Free TanIIA) and tanshinone IIA-loaded niosomes (TanIIA-NSVs, Gal-pH-TanIIA-NSVs) at an equivalent tanshinone IIA dose of 5 μg/mL for 24 h. Another group was treated with PBS for the same duration as the control group. After incubation, the cell culture medium was transferred to a 2-mL centrifuge tube, and cells digested by a trypsin-EDTA solution were added to the cell culture medium collected previously. Subsequently, the cells were mixed, transferred to a centrifuge tube, and centrifuged at 1000×g for 5 min ([34]). The supernatant was discarded, and the cells were gently resuspended with PBS and counted. A certain amount of resuspended cells were centrifuged in a similar fashion, the supernatant was discarded (PBS was removed), and 500 μL of binding buffer was added. Then, the cells were gently resuspended, and 5 μL Annexin V-FITC was added. After mixing, 5 μL propidium iodide (PI) staining solution was added to the cells, gently mixed, and incubated for 10 min in the dark at room temperature (20–25°C). Flow cytometry was then performed ([35]).

Data set [3] concerns HepG2 cells. The experiment in a line: Cell cycle by flow cytometry (PI). Format: cell-based. To be noted: 5 μg/mL tanshinone IIA equivalent, 24 h, control 28.98%. Here is the method: The test method was performed according to the method provided with the apoptosis test until two centrifugations were completed, and the supernatant was discarded. Next, 1 mL of ice bath precooled 70% ethanol was added to fix the cells for 24 h at 4°C, then, the fixed cells were centrifuged at 1000×g for 5 min ([36]). After resuspending the cells, the cells were centrifuged and precipitated again, and the supernatant was discarded. A total of 500 μL PI staining solution was added to the cells, and the cells were slowly and sufficiently resuspended and bathed for 30 min in the dark at 37°C. Flow cytometry was completed within 24 h after staining ([37]).
For orientation: A flow cytometer gives signals particle by particle.

Data set [4] in a line: Pharmacokinetics after tail vein injection. Format: in vivo. To be noted: SD rats. Here is the method: Twelve male SD rats (weighing 200–250 g) were randomly divided into three groups. Rats were fasted for 12 h but drank water freely before administration ([38]). The first, second, and third groups were injected with Free TanIIA, TanIIA-NSVs, and Gal-pH-TanIIA-NSVs at an equivalent tanshinone IIA dose of 10 mg/kg via tail vein, respectively. Orbital blood was taken at 0.083, 0.25, 0.5, 1, 2, 4, 6, 8, 12, and 24 h after administration. Blood was transferred to a centrifuge tube coated with heparin sodium and centrifuged at 9391.2×g for 5 min to prepare plasma that was stored at −20°C ([39]).
After treatment of plasma and tissue homogenate, the obtained supernatant was concentrated by nitrogen blowing and determined by HPLC.

A short description of data set [5]: Biodistribution after tail vein injection. The data set is classed as in vivo. To be noted: SD rats, 10 mg/kg, all time periods tested (0.083, 4, 12 h). The procedure: Twenty-seven male SD rats were randomly divided into three groups and administered in the same way. Rats were sacrificed after 0.083, 4, and 12 h, respectively, and heart, liver, spleen, lung, and kidney tissues were collected immediately. Any residual blood on the tissue was washed with precooled normal saline, and the washed tissue was blotted up with filter paper and weighed. The tissue was then homogenized in 5 times the mass of precooled normal saline. Homogenized tissue samples were centrifuged at 9391.2×g for 5 min to separate the tissue homogenate and were stored at −20°C ([39]). After treatment of plasma and tissue homogenate, the obtained supernatant was concentrated by nitrogen blowing and determined by HPLC.

Details of data set [6]: method as in PMID 28680091. To be noted: cited from earlier work.
On the set-up of data set [7]: method as in PMID 28680091. To be noted: cited from earlier work. This is another data set of the same source.
Setting [8] is: 10 mg/kg tanshinone IIA equivalent, tail vein.

A word on the IC50: it is the concentration at which inhibition is half-maximal. The half-life is how long it takes for the measured level to halve.

Read-outs that look alike come from different tables or passages of the source.

As for `Cc1coc2c1C(=O)C(=O)c1c-2ccc2c1CCCC2(C)C` [Free TanIIA, Tanshinone IIA], the IC50 with A2780 cells is 2.44 µg/mL; in the data set on HCT8 cells, 2.42 µg/mL; with HepG2 cells [1], 2.26 µg/mL; in the data set with Huh7 cells it was 2.5 µg/mL. Besides, the “Apoptotic rate (early + late apoptosis)” value with HepG2 cells [2] stood at 78.34%. For the same compound, the S phase distribution in the data set with HepG2 cells [3] came to 50.53%. Also, in data set [4] (12 h after injection, 10 mg/kg), the “Plasma concentration by HPLC” value is on record as “could not be detected”. Also, the “AUC0–t” value in [4] (setting [8]) is listed as 7.70 ± 1.51 (μg/mL)·h. For the same compound, the “AUC0–∞” value in data set [4] (setting [8]) is reported as 8.81 ± 1.65 (μg/mL)·h. The CL in data set [4] (setting [8]) is on record as 0.284 ± 0.026 (mg)/(μg/mL)/h. For the same compound, the Vd in [4] (setting [8]) is recorded as 1.26 ± 0.09 (mg)/(μg/mL). The half-life in data set [4] (male, rat, plasma, iv, 10 mg/kg tanshinone IIA equivalent, tail vein) is 3.09 ± 0.59 h; in data set [7], “short half-life”. The MRT last in data set [4] (male, rat, plasma, iv, 10 mg/kg tanshinone IIA equivalent, tail vein, read-out: MRT0–t) amounted to 2.23 ± 0.2 h. For the same compound, in data set [4] (male, rat, plasma, iv, 10 mg/kg tanshinone IIA equivalent, tail vein, read-out: MRT0–∞), the MRT inf came to 3.53 ± 0.63 h. Further, the “Drug level in kidney tissue” value in data set [5] is “relatively high drug levels”. Also, the Solubility in water entry in data set [6] is given as “insolubility in water”.
